Consider five compounds from US20230116399A1, “Tumor Homing Statin Derivatives” (Da Zen Theranostics, Inc., priority 2019, published 2023).

Data set [1] has as its system L858R/T790M vs wild-type EGFR. Conditions: inhibiting phosphorylation of EGFR; cited from earlier work.
Data set [2] can be described thus: Stability of conjugates in mouse blood serum at 37° C. for 3 hours (LC-MS/MS). The data set is classed as in vitro ADME. As to conditions: for amount of conjugate at 3 h (value at time 0 is 100) / degradation/release of the statin from the conjugate: mouse blood serum, 37° C., 3 h; for stability when exposed to serum: serum at body temperature for at least 3 hours. The procedure: Comparative example 1A-V: Synthesis of DZ1-SIM rapid release ester (RRE) and comparison of stability to an ELSD (here: DZ1-SIM). A rapid release ester (RRE) is synthesized as described below, linking DZ1 to Simvastatin (DZ1-SIM RRE or “DZ2c”, compound 8) and is tested in comparison to the ELSD (here: DZ1-SIM or “DZ2b”, compound 14, synthesized as described above). Both compounds are incubated in mouse blood serum at 37° C. for 3 hours, after which samples are taken and tested for degradation of the conjugates by testing for the unconjugated statin as described in example 6 herein-below (LC-MS/MS-025 with positive ion, ESI, MRM detection and HPLC). […] The value at time 0 for each of the samples is 100.

Another data set deals with 22RV1 (PC). As to the kind of experiment: MTT cell viability, 22RV1. The format is cell-based, human. Here is the method: (§1) Cell culture: In the following examples, unless otherwise specified, all cell lines are purchased from American Type Culture Collection and cultured in American Type Culture Collection (ATCC)-recommended media, with fetal bovine serum (FBS) to a final concentration of 10% and 1×penicillin/streptomycin at 37° C. with 5% CO2 in a cell culture incubator, unless otherwise specified. Unless otherwise specified, culture is 2D. Where culture is 3D, low attachment plates are used, with the same media. C4-2B (parental cell line and drug-resistant cells derived therefrom) are cultured in RPMI-1640 with 10% FBS. MDVR cells (an Enzalutamide-resistant variety of C4-2B prostate cancer cells formed as described in Example 4 below) are cultured as indicated for the parental C4-2B cells. 22RV1 Prostate Cancer (PC) cells (ATCC® CRL-2505™, a human prostate carcinoma cell line of epithelial morphology) are cultured in RPMI-1640 with 10% FBS. A549 cells (ATCC® CCL-185™, a human lung carcinoma cell line of epithelial morphology) are cultured in F-12K medium with 10% FBS. A549/DDP cells (Cells were described in DOI: 10.3892/mmr.2014.2163 and in doi: 10.7150/jca.19426; cisplatin resistant cells may be established from exposing parental A549 cells to cisplatin for an extended time). MDR A549/cisplatin lung adenocarcinoma cell line, drug resistant) are cultured in F-12K medium with 10% FBS. H1975 cells (ATCC® CRL-5908™, a human adenocarcinoma non-small cell lung cancer cell line of epithelial morphology) are cultured in RPMI-1640 medium with 10% FBS; H1975 cells are a cell model for human lung cancer that is resistant to Gefitinib (an EGFR inhibitor drug used for treatment of certain breast, lung and other cancers). H1650 cells (ATCC® CRL-5883™, a adenocarcinoma/bronchoalveolar carcinoma lung cancer cell line of epithelial morphology) are cultured in RPMI-1640 medium with 10% FBS. […]
(§2) […] For each cell line, the IC50 is determined for each drug, i.e. the ELSD, the ALSD, and for the corresponding unconjugated statin (Simvastatin), in concentrations from 0.1-100 μM. […]

In another data set the test system is EZ-resistant C4-2B (PC). As to the kind of experiment: MTT cell viability, EZ-resistant C4-2B (MDVR). As to conditions: Homo sapiens, 48 h / 24 hours, relative IC50. The data set is classed as cell-based. Here is the method: as §1, with “FBS.” for “FBS. H1975 cells (ATCC® CRL-5908™, a human adenocarcinoma non-small cell lung cancer cell line of epithelial morphology) are cultured in RPMI-1640 medium with 10% FBS; H1975 cells are a cell model for human lung cancer that is resistant to Gefitinib (an EGFR inhibitor drug used for treatment of certain breast, lung and other cancers). H1650 cells (ATCC® CRL-5883™, a adenocarcinoma/bronchoalveolar carcinoma lung cancer cell line of epithelial morphology) are cultured in RPMI-1640 medium with 10% FBS.”

In another data set the test system is PC3 (PC). The data set is described as follows: MTT cell viability, PC3. The data set is classed as cell-based. As to conditions: Homo sapiens, 48 h / 24 hours, relative IC50. Here is the method: as §1, with “FBS.” for “FBS. H1975 cells (ATCC® CRL-5908™, a human adenocarcinoma non-small cell lung cancer cell line of epithelial morphology) are cultured in RPMI-1640 medium with 10% FBS; H1975 cells are a cell model for human lung cancer that is resistant to Gefitinib (an EGFR inhibitor drug used for treatment of certain breast, lung and other cancers). H1650 cells (ATCC® CRL-5883™, a adenocarcinoma/bronchoalveolar carcinoma lung cancer cell line of epithelial morphology) are cultured in RPMI-1640 medium with 10% FBS.”

A further data set concerns A549 (LC). As to the kind of experiment: MTT cell viability, A549. The data set is classed as cell-based, human. As to conditions: Homo sapiens, 48 h / 24 hours, relative IC50. The procedure:
as §1

A further data set has as its system A549DDP (LC). As to the kind of experiment: MTT cell viability, A549DDP. Conditions: Homo sapiens, A549/DDP, 48 h / 24 hours, relative IC50. The data set is classed as cell-based, human. Here is the method:
as §1, §2

In a further data set the test system is H1975 (LC). The data set is described as follows: MTT cell viability, H1975. The format is cell-based, human. As to conditions: Homo sapiens, NCI-H1975, 48 h / 24 hours, relative IC50. The procedure:
as §1

Another data set concerns H1650 (LC). As to the kind of experiment: MTT cell viability, H1650. As to conditions: Homo sapiens, NCI-H1650, 48 h / 24 hours, relative IC50. The data set is classed as cell-based, human. Here is the method:
as §1

Another data set has as its system PC9 (LC). As to the kind of experiment: MTT cell viability, PC9. The format is cell-based, human. Conditions: Homo sapiens, 48 h / 24 hours, relative IC50. Here is the method: as §1
A further data set concerns H446 (LC). The data set is described as follows: MTT cell viability, H446. The format is cell-based, human. Conditions: Homo sapiens, NCI-H446, 48 h / 24 hours, relative IC50. Here is the method:
as §1

In a further data set the test system is human cancer cell lines. The data set is described as follows: MTT cell viability, summary over the cancer cell lines. The format is cell-based. Conditions: summary of the table of IC50, read-out: range of IC50 over the cancer cell lines. The procedure: Example 7: The experiment is performed by cell assay essentially as described above in example 4. […]
The cell lines are cultured according to the protocols as described above, then each of the cell lines are treated for 48 h either with an ELSD (here of formula FId, “DZ2b” or compound 14) or with an ALSD (here of formula FIId, “DZ2a” or compound 7). For each cell line, the IC50 is determined for each drug, i.e. the ELSD, the ALSD, and for the corresponding unconjugated statin (Simvastatin), in concentrations from 0.1-100 μM.
In the controls (not shown in the figures), the cells are exposed to DMSO (vehicle) for a final concentration that equals the highest concentration of the drug tested, to a maximum concentration less than 0.1% v/v. […] The absorbance density of the supernatant is read on a 96-well microplate reader at wavelength 595 nm.

In data set [3] the test system is 22Rv1 human prostate carcinoma tumors. The data set is described as follows: Tumor volume of 22Rv1 tumors grown subcutaneously in mice. The format is in vivo. As to conditions: 8 mg/kg, intravenously injected. The procedure: Example 1D: 22Rv1 human prostate carcinoma cells are cultured as described above, separated from the medium, resuspended in 50% phosphate buffered saline (PBS) and 50% BD Matrigel™ (BD Biosciences, CA), and then the re-suspended cells are injected and grown subcutaneously in mice. […] The decrease of the THSD in the tumors at 2 and 4 weeks, respectively, as determined by NIR signal, is less than about 30%.
Example 1E: 22Rv1 human prostate carcinoma cells are cultured, injected and grown subcutaneously in mice as described above in example 1D. Tumor volume is monitored by measuring the size by caliper and calculating volume as described in example 9 below. The mice are intravenously injected with the following: ALSD of formula FIId, “DZ2a”, compound 7, the corresponding unconjugated dye (here: DZ1), unconjugated Simvastatin, a statin drug (SIM), and docetaxel (DOC), a cancer drug, and a mixture of the ALSD with DOC. Each active was administered in an amount of 5 mg/kg for the ALSD, DZ1, and SIM, except, in case of DOC, 8 mg/kg. A slower rate of increased tumor volume indicates tumor suppressive activity.

Data set [4] relates to RhoA/B in H-1975 human lung cancer tumors. The data set is described as follows: RhoA/B membrane staining of tumor tissue, H-1975 mouse model. The data set is classed as in vivo, mice. Conditions: 20 mg/kg. Here is the method: RhoA/RhoB membrane staining of tumor tissue of a H-1975 human lung cancer cell mouse model is performed as described below, and the tumor-bearing mice are treated with a THSD (here an ALSD of formula FIId, “DZ2a”, compound 7) in comparison to the corresponding unconjugated dye (“DZ1”) and to Gefinitib (an EGFR inhibitor drug used for treatment of certain breast, lung and other cancers).
H-1975 cells, a cell model for human lung cancer that is resistant to Gefitinib (an EGFR inhibitor drug used for treatment of certain breast, lung and other cancers) are cultured as described above and injected subcutaneously into mice to develop tumors. The mice and the tumors that are formed are systemically exposed to an ALSD (here of formula FIId, “DZ2a”, compound 7) by intravenous injection. The tumor-bearing mice are treated with either Gefitinib (20 mg/kg), or with an ALSD (here of formula FIId, “DZ2a”, compound 7, 5 mg/kg), an unconjugated dye of formula III (“DZ1”, 5 mg/kg) or a combination of the ALSD with Gefitinib.
For immunostaining of tumor tissue, the animals are sacrificed by prescribed and approved euthanasia techniques. Tumor tissue (maximum thickness 3 mm) is sliced, formalin fixated, embedded into paraffin blocks which are sectioned and processed into paraffin section slides. […]

On to `C=CC(=O)Nc1cc(Nc2nccc(-c3cn(C)c4ccccc34)n2)c(OC)cc1N(C)CCN(C)C` [AZD9291, Osimertinib], for which, in data set [1], the “greater potency against L858R/T790M than wild-type EGFR” value is 100-200 times.
For the compound `CCC(C)(C)C(=O)O[C@H]1C[C@@H](C)C=C2C=C[C@H](C)[C@H](CC[C@@H](O)C[C@@H](O)CC(=O)OCCNC(=O)CCCCCN3/C(=C/C=C4\CCCC(/C=C/C5=[N+](CCCCS(=O)(=O)O)c6ccccc6C5(C)C)=C4Cl)C(C)(C)c4ccccc43)[C@H]21` [DZ2b], the “amount of conjugate at 3 h (value at time 0 is 100)” value in data set [2] amounted to 100. In addition, the “degradation/release of the statin from the conjugate” value in data set [2] was “no degradation/release”. Besides, in data set [2], the “stability when exposed to serum” value was “stable and not subject to degradation”. The IC50 (commonly the concentration at which inhibition is half-maximal) is 7.8 µM in the data set with 22RV1 (PC) (22RV1, treated for 48 h /, relative IC50, listed as ELSD); 10.8 µM in the data set on 22RV1 (PC) (Homo sapiens, 22Rv1, 22RV1, treated for 48 h /, relative IC50); 3.8 µM in the data set with EZ-resistant C4-2B (PC); 6 µM in the data set on PC3 (PC); 5.4 µM with A549 (LC); 2.1 µM in the data set on A549DDP (LC). For the same compound, the IC50 with H1975 (LC) is 6.4 µM; with H1650 (LC), 11.8 µM; with PC9 (LC) it was 5.6 µM; in the data set on H446 (LC), 3.4 µM; in the data set on human cancer cell lines it was 2 to 12 µM.
For the compound `CCC(C)(C)C(=O)O[C@H]1C[C@@H](C)C=C2C=C[C@H](C)[C@H](CC[C@@H]3C[C@@H](OC(=O)CCCCCN4/C(=C/C=C5\CCCC(/C=C/C6=[N+](CCCCS(=O)(=O)[O-])c7ccccc7C6(C)C)=C5Cl)C(C)(C)c5ccccc54)CC(=O)O3)[C@H]21` [DZ2c], in data set [2], the “amount of conjugate at 3 h (value at time 0 is 100)” value is given as 10; the “degradation/release of the statin from the conjugate” value is 90%; the “stability when exposed to serum” value was “less stable and more easily degrades”.
Consider `CC(=O)O[C@@]12CO[C@@H]1C[C@H](O)[C@@]1(C)C(=O)[C@H](O)C3=C(C)[C@@H](OC(=O)[C@H](O)[C@@H](NC(=O)OC(C)(C)C)c4ccccc4)C[C@@](O)([C@@H](OC(=O)c4ccccc4)[C@H]21)C3(C)C` [Docetaxel], for which the “tumor suppressive activity (tumor volume increase)” value in [3] is given as “no or very mild tumor suppressive activity”; in [3] (listed as DOC) it was “no significant tumor suppressive activity”.
As for `COc1cc2ncnc(Nc3ccc(F)c(Cl)c3)c2cc1OCCCN1CCOCC1` [Gefitinib], in data set [4], the “RhoA/B staining of tumor cell membranes” value was “staining persists in the membranes”.
